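Following 48 hours of exposure in 96-well plates, responses at five concentrations were used to interpolate endpoints linearly. At the TGI there is no net growth.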
How the values were obtained:
Test in all cases: NCI anticancer screen, dose series, 48 h
[1] = test system: TK-10 renal
[2] = test system: SW-620 colon
[3] = test system: COLO 205 colon
[4] = test system: SF-268 CNS
[5] = test system: MALME-3M melanoma
[6] = test system: UACC-62 melanoma
[7] = test system: DU-145 prostate
[8] = test system: A549 NSCLC
[9] = test system: CAKI-1 renal
[10] = test system: HCT-15 colon
[11] = test system: T-47D breast
[12] = test system: OVCAR-4 ovarian
[13] = test system: UO-31 renal
[14] = test system: HOP-92 NSCLC
[15] = test system: NCI-H23 lung
[16] = test system: NCI-H522 lung
[17] = test system: OVCAR-3 ovarian
[18] = test system: PC-3 prostate
[19] = test system: SNB-19 CNS
[20] = test system: M14 melanoma

SMILES	TGI [1] [µM]	TGI [2] [µM]	TGI [3] [µM]	TGI [4] [µM]	TGI [5] [µM]	TGI [6] [µM]	TGI [7] [µM]	TGI [8] [µM]	TGI [9] [µM]	TGI [10] [µM]	TGI [11] [µM]	TGI [12] [µM]	TGI [13] [µM]	TGI [14] [µM]	TGI [15] [µM]	TGI [16] [µM]	TGI [17] [µM]	TGI [18] [µM]	TGI [19] [µM]	TGI [20] [µM]
CCOC(=O)c1nc2ccccc2nc1NCc1ccc(OC)cc1	> 100	> 100	> 100	> 100	> 100	> 100	> 100	> 100	> 100	> 100	> 100	> 100	> 100	> 100	> 100	> 100	> 100			
CCOC(=O)n1[nH]c(=O)n(-c2ccccc2)c1=O	> 100	> 100	> 100	> 100	> 100	> 100	> 100	> 100	> 100	> 100	> 100	> 100	> 100		> 100		> 100	> 100	> 100	> 100
COc1ccc(CNc2nc3cc(C(F)(F)F)ccc3nc2C(=O)O)cc1OC		> 100	57.7			45.6	> 100	> 100	> 100	> 100	> 100	> 100	> 100	> 100	> 100		58.1	> 100	> 100	> 100
C[C@]12CCC(=O)C=C1CC[C@@H]1[C@@H]2CC[C@]2(C)C(=O)[C@H](n3ccnc3)C[C@@H]12	> 100	> 100	> 100	> 100	> 100	> 100	> 100	> 100	> 100	> 100		> 100	> 100	> 100	> 100	> 100		> 100	> 100	> 100
Nc1ncnc2c1ncn2C1C=CC(CP(=O)(O)O)C1 (stereo not given)	> 100	> 100	> 100	> 100	> 100	> 100	> 100	> 100	> 100	> 100	> 100	> 100	> 100		> 100		> 100	> 100	> 100	> 100
Cc1ccc2c(=O)cc(-c3cccc4ccccc34)[nH]c2n1		> 100	0.676	> 32.4	0.0495	> 100	> 74.7	> 48.1	> 100	1.73	> 100	> 85.1	> 55.4	32	> 100			> 43	> 100	> 100
CN(/N=C/c1cccs1)c1ccc(Cl)cc1[N+](=O)[O-]	> 100	> 100		> 100		> 100	> 100	> 100	> 100	> 100	> 100	> 100	> 100		> 100	69.5	> 100	> 100	> 100	> 100
COC1=NC(NC2OCC(O)C(O)C2O)=C(NC(C)=O)CN1C (stereo not given)	> 100	> 100	> 100	> 100	> 100	> 100	> 100	> 100	> 100	> 100	> 100	> 100	> 100	> 100	> 100	> 100	> 100		> 100	> 100
CC(C)(C)[Si](C)(C)OCCCCC1CC2(S(=O)(=O)C3=CC=C=C=C3)ON1CC2S(=O)(=O)c1ccccc1 (stereo not given)	> 100	> 100	> 100	> 100		> 100	> 100	> 100		> 100	> 100	> 100	> 100	> 100	> 100		> 100		> 100	> 100
CCOC(=O)CC(=O)C(=O)NNC1=NCCCN1	> 100	> 100	> 100	> 100	> 100	> 100	> 100	> 100		> 100	> 100	> 100	> 100	> 100	> 100		> 100	> 100	> 100	> 100
COC(=O)CCC(NC(=O)C(C)NC(=O)COC1C(O)C(OC(=O)CCNc2c3ccccc3nc3cccc([N+](=O)[O-])c23)OC(OCc2ccccc2)C1NC(C)=O)C(N)=O (stereo not given)	> 10	4.44		> 10	7.06	> 10	7.06	> 10		> 10	> 10		> 10	> 10	> 10		> 10	> 10	> 10	> 10
O=C(NC1CCC(=O)N1C(=O)OCc1ccccc1)OCc1ccccc1 (stereo not given)	> 100	> 100	> 100	> 100	> 100	> 100	> 100	> 100	> 100	> 100			> 100	> 100	> 100	> 100	> 100	> 100	> 100	> 100
CN(c1ccccc1)S(=O)(=O)c1ccccc1[N+](=O)[O-]	> 100	> 100	> 100	> 100	> 100	> 100	> 100	> 100	> 100	> 100	> 100	> 100	> 100		> 100	> 100	> 100	> 100	> 100	> 100
CCc1ccc(Nc2cc(=O)[nH]c(SCc3ccccc3)n2)cc1	> 100	> 100	> 100	> 100	> 100	> 100	> 100	> 100	> 100	> 100	> 100		> 100	> 100	> 100	> 100	> 100		> 100	> 100
O=C1c2cccnc2S(=O)N1Cc1ccccc1 (stereo not given)	> 100	> 100	> 100	> 100	> 100	> 100	> 100	> 100	> 100	> 100	> 100	> 100	> 100	> 100	> 100	> 100			> 100	> 100
Oc1c2cc(Br)cc1CCc1cc(Br)cc(c1O)CC2	89.9	70.5	27.7	> 100	> 100	46	> 100	> 100	> 100	80.7	> 100		66.6		> 100	45.8	48.8	55.8	> 100	36.7
OCC1OC(Oc2cc(O)cc(/C=C\c3ccc(O)cc3)c2)C(O)C(O)C1O (stereo not given)	> 100	> 100				> 100	> 100	> 100	> 100	> 100		> 100	> 100	> 100		> 100	> 100	> 100	> 100	
OCC1NCC(O)C(O)C1O (stereo not given)	> 100	> 100	> 100	> 100	55.8	> 100	> 100	> 100	> 100	> 100		> 100	> 100	> 100	> 100	> 100	> 100	> 100	> 100	> 100
Cn1c(=O)[nH]c2[nH]c3ccccc3c2c1=O	> 100	> 100	> 100	> 100	> 100	> 100	> 100	> 100	> 100	> 100	> 100		> 100	> 100	> 100	> 100	> 100		> 100	> 100
CC(=O)OCCCCn1cnc2nc(Nc3ccccc3)nc(Cl)c21	> 100	> 100	> 100	> 100	> 100	> 100		> 100	81.4	> 100	> 100	> 100	> 100	> 100			> 100	> 100	> 100	> 100
COC1O[C@@H]2CCN3C(=O)[C@@H](OC(=O)c4ccc([N+](=O)[O-])cc4)[C@H]1C23 (stereo not given in full)	> 100	> 100	> 100	> 100		> 100	> 100	> 100	> 100		> 100		> 100	> 100	> 100	> 100	> 100			> 100
Cn1c(=O)c2c(no[n+]2[O-])n(C)c1=O	60.7	59.9	43.9	55.7	40	40.5		> 100	35.2	> 100	> 100	> 100	97.1	44.1	47.9	30	> 100	> 100	64.8	> 100
CC1(C)C(O)C[C@]23CCC[C@](C)(C[C@@H](O)C12)C3 (stereo not given in full)	> 100	> 100	> 100	> 100	> 100	> 100		> 100	> 100	> 100		> 100	> 100	> 100	> 100	> 100	> 100	> 100	> 100	> 100
OC(c1cccnc1)C(F)(F)c1nc2ccccc2o1 (stereo not given)	> 100	> 100	> 100	> 100		> 100	> 100		> 100	> 100	> 100	> 100	> 100	> 100	> 100			> 100	> 100	
O=C(Cn1cc(-c2ccccc2)nn1)NC1CCCC1	> 100	> 100	> 100	> 100	> 100		> 100	> 100	> 100	> 100		> 100		> 100	> 100	> 100		> 100	> 100	> 100
O=C1C2=Cc3ccccc3OC2(O)Oc2cc(O)ccc21 (stereo not given)	> 100	> 100	> 100	> 100	> 100	> 100	> 100	> 100	> 100	> 100	> 100			> 100	> 100		> 100	> 100		> 100
Cc1ccc(OCC2OC(C#N)C(Oc3ccc(C)cc3)C2Oc2ccc(C)cc2)cc1 (stereo not given)		> 100	> 100	> 100		> 100	> 100	> 100	> 100	> 100	> 100	> 100	> 100		> 100	> 100	> 100	> 100	> 100	> 100

Reference: PubChem BioAssay (NCI)
